Earlier results in US20090291958A1, “Substituted PDE5 inhibitors” (Auspex Pharmaceuticals, Inc., priority 2006, published 2009).

Tests used:
[1] = in vivo
PDE6 = conditions: share of patients; attributed to PDE6 modulation
PDE5 versus PDE6 = conditions: compared with sildenafil and vardenafil
[2] = in vivo; remark: listed apart in the source

SMILES: CN1CC(=O)N2[C@H](c3ccc4c(c3)OCO4)c3[nH]c4ccccc4c3C[C@@H]2C1=O [tadalafil, Tadalafil]
- half-life [1]: 17.5 h
- patients with side effects of chromatopsia, increased sensitivity to light, and blurred vision (PDE6): less than 0.1%
- selectivity for PDE5 versus PDE6 (PDE5 versus PDE6): much more selective than sildenafil and vardenafil
- exercise tolerance [2]: improve exercise tolerance
- rate of myocardial infarction [2]: lower rate of myocardial infarction than placebo
